Source: article PMC12751141, “Disrupting α-Synuclein–ClpP interaction restores mitochondrial function and attenuates neuropathology in Parkinson’s disease models” (Molecular Neurodegeneration, 2025)

Legend:
ClpP–αSyn interaction = assay: Co-immunoprecipitation of ClpP with αSyn constructs in HEK293T cell lysates; format: cell-based; conditions: HEK293T lysates
Description: Myc-tagged WT- and A53T- αSyn, Myc-tagged ClpP, and Flag-tagged WT- and S153A- ClpP plasmids were self-constructed as previously described (Ref). To construct truncated-αSyn plasmids, pcDNA3.1(-) was digested with BsteII and XbaI, and ΔN-, ΔC- and ΔNAC-αSyn was PCR-amplified using self-designed primers and inserted into the plasmid backbone. Cells were transfected with TransIT-2020 (Mirus Bio, LLC) following the manufacturer’s protocol.
(§1) Cells or tissues were lysed in total lysis buffer (50mM Tris-HCl, pH 7.5, 150mM NaCl, 1% Triton X-100, and protease inhibitor). Total protein lysates (800 µg) were incubated with the indicated antibodies overnight at 4 °C followed by the addition of protein A/G beads (sc-2003, Santa Cruz) for 2 h at 4 °C. Various recombinant αSyn and Clpp (500 ng) were incubated in in vitro interaction buffer (20mM Tris-HCl pH 7.5, 100mM KCl, 2mM MgCl2 and 0.1% Triton-X100) for 30 min at room temperature, and then incubated with indicated antibodies overnight at 4 °C followed by the addition of protein A/G beads for 2 h at 4 °C. The beads with immuno-precipitates were pulled down at 4000 g and washed four times with total lysis buffer/in vitro interaction buffer in the presence of 0.1% Triton X-100 and were analyzed by western blot analysis.
Shown are representative blots of 3 independent experiments. Quantification of the ratio of αSyn over ClpP (pull-down) (n = 4, two-tailed Student’s t test, data are mean ± SEM).

mThy1-hSNCA mice [1] = assay: Y-maze test in mThy1-hSNCA mice; format: in vivo, mouse
Description: (§2) C57BL/6 N-Tg (Thy1-SNCA)15Mjff/J (JAX: 017682) breeders (C57Bl/6NJ genetic background) were purchased from Jackson Laboratories. The mice were mated, bred, and genotyped in the animal facility of Case Western Reserve University. All mice were maintained at a 12-hour light/dark cycle (on 6 am, off 6 pm). All randomization and peptide treatments in mThy1-hSNCA mice were prepared by an experimenter not associated with the behavioral and neuropathology analysis. Only male mice were used in the study. mThy1-hSNCA transgenic mice and their age-matched WT littermates were implanted with a 28-day subcutaneous osmotic pump (Alzet, Cupertino CA, Model 2004) containing either TAT control peptide or CS2 peptide, which delivered the peptides at indicated rate (1 or 3 or 10 mg/kg/day). The pump was replaced once every four weeks. All mice were sacrificed at age of 10-month for neuropathology assessment.
On the test day, mice at 6-month-old were brought to the testing room one hour before performing the Y-maze test to allow habituation. The mice were placed in the middle of the Y-maze and allowed to explore the three arms for 4-min. During exploration, the arm entries were recorded. The equipment was cleaned after every test to avoid odor disturbance. Spontaneous alternation was defined as a successive entry into three different arms on overlapping triplet sets.
Fig. 7 CS2 treatment is protective in mThy1-hSNCA mouse model of PD. (A) Experimental schematic of CS2 treatment in mThy1-hSNCA (Thy1) mouse model of PD: TAT or CS2 peptide was administered (3 mg/kg/day) via subcutaneous osmotic pump (O.P.) in Thy1 mice and their wild-type (WT) littermates starting from age of 4-month till 10-month. […] (D) Representative images of pS129-αSyn staining in substantia nigra of WT and Thy1 mice treated with TAT or CS2 peptide (scale bar = 100 μm). […] (G) Representative images of ClpP and tyrosine […] (TH) staining on the brain coronal sections from TAT or CS2-treated Thy1 mice and their WT littermates (scale bar = 100 μm). […]

SH-SY5Y cells = assay: Cytotoxicity by LDH in SH-SY5Y cells; format: cell-based
Description: The bimolecular fluorescence was examined 24-hour after transfection (n = 3, one-way ANOVA with Tukey’s post-hoc test, scale bar = 30 μm). (D) Quantification of the concentration (ng/ml) of extracellular αSyn monomer and oligomer, and intracellular αSyn oligomer in Tet-inducible SH-SY5Y cells that were pre-treated with TAT or CS2 peptide 30-minute before adding doxycycline (Dox) to induce αSyn expression. The concentration of αSyn species was determined by ELISA (n = 4, one-way ANOVA with Tukey’s post-hoc test; data are mean ± SEM). (E) Representative images of Mito-SOX staining in SH-SY5Y cells that were pre-treated with TAT or CS2 peptide and transfected with split Venus-αSyn vectors. Mitochondrial ROS production was determined by Mito-SOX staining after 24-hour transfection (n = 4, two-tailed Student’s t test, scale bar = 30 μm).
(G) Quantification of cytotoxicity examined by LDH assay in SH-SY5Y cells treated with indicated peptides (n = 3, one-way ANOVA with Tukey’s post-hoc test, data are mean ± SEM).

mThy1-hSNCA mice [2] = assay: Open-field test in mThy1-hSNCA mice; format: in vivo, mouse; conditions: 3 mg/kg/day s.c.; age of 8-month; n = 12-15 mice/group; vs TAT
Description: as §2
The locomotor activity of all experimental mice was assessed in an open field chamber at 8-month-old. Briefly, the mice were placed in the center of an activity chamber (Omnitech Electronics) and allowed to explore the chamber while being tracked using an automated infrared tracking system (Vertax, Omnitech Electronics). A 24-hour locomotor activity analysis was performed. Both horizontal and vertical activity/movements were recorded.

αSyn–ClpP binding = assay: Immunoprecipitation of recombinant ClpP and αSyn in vitro; parameters: species or system human; conditions: recombinant ClpP pre-incubated with peptide 30 min before αSyn; anti-ClpP IP; 3 independent experiments
Description: The human recombinant WT- (#S-1001-2), A53T- (#S-1001-2), ΔNAC- (#S-1015-1) and ΔC- (#S-1012-1) αSyn and FITC-αSyn (S-1113-2) were purchased from rPeptide. The human recombinant αSyn pre-formed fibrils (PFF) (Type 1) (SPR-322) and ATTO-594-PFF (SPR-322B-A594) were purchased from StressMarq Biosciences (Bioactivity has been widely validated via various approaches, e.g. TEM, ThT).
as §1

What does the source list for `CC(C)[C@H](NC(=O)CNC(=O)CNC(=O)CCCCCNC(=O)[C@H](CCCNC(=N)N)NC(=O)[C@H](CCCNC(=N)N)NC(=O)[C@H](CCCNC(=N)N)NC(=O)[C@H](CCC(N)=O)NC(=O)[C@H](CCCNC(=N)N)NC(=O)[C@H](CCCNC(=N)N)NC(=O)[C@H](CCCCN)NC(=O)[C@H](CCCCN)NC(=O)[C@H](CCCNC(=N)N)NC(=O)CNC(=O)[C@@H](N)Cc1ccc(O)cc1)C(=O)N[C@H](C(=O)N[C@H](C(=O)N[C@@H](C)C(=O)O)[C@@H](C)O)C(C)C` [CS2, TAT-C6-GGVVTA]?
ClpP binding to ΔC-αSyn (ClpP–αSyn interaction; Flag-ClpP + Myc-ΔC-αSyn): abolished; ClpP binding to ΔN-αSyn (ClpP–αSyn interaction; Flag-ClpP + Myc-ΔN-αSyn): abolished; ClpP binding to WT-αSyn (ClpP–αSyn interaction; WT αSyn, CS2: 24-hour treatment): abolished; cognitive activity in Y-maze (mThy1-hSNCA mice [1]; 3 mg/kg/day s.c., age of 6-month, n = 15 mice/group, vs TAT): improved cognitive activity; spontaneous alternation, dose dependence (mThy1-hSNCA mice [1]; 1, 3 or 10 mg/kg/day s.c. osmotic mini pump, 8 weeks from 4 months, tested at 6 months, n = 3 mice/group): improved spontaneous alternation behavior in a dose-dependent manner; spontaneous alternation, 3 vs 10 mg/kg/day (mThy1-hSNCA mice [1]; s.c., 8 weeks, comparison of 3 and 10 mg/kg/day): no significant difference between 3 and 10 mg/kg/day; cell death, A53T-αSyn (SH-SY5Y cells; SH-SY5Y stably overexpressing A53T-αSyn, 2-day treatment, 12-hour serum starvation, n = 4): significantly reduced cell death; cell death, WT-αSyn (SH-SY5Y cells; SH-SY5Y stably overexpressing WT-αSyn, 2-day treatment, 12-hour serum starvation, n = 4): significantly reduced cell death; cell viability, healthy cells (SH-SY5Y cells; healthy SH-SY5Y, 3 days, n = 3): did not affect cell viability; locomotor activity, open field (mThy1-hSNCA mice [2]): ameliorated locomotor activity; αSyn–ClpP binding, recombinant (αSyn–ClpP binding): significantly reduced αSyn–ClpP binding
